One may read the IC50 as the concentration that inhibits the measured activity by half.

Experiment [1] deals with hGYS1 enzyme (recombinant hGYS1/GN1 protein) (Homo sapiens (Human), UniProt P13807). As to the kind of experiment: GYS1 coupled enzyme assay (PK/LDH). It counts as biochemical. The note with it: hGYS1/GN1 50 nM, UDP-Glucose 0.8 mM, G6P 1 mM; geometric mean of at least 2 runs.
In experiment [2] the test system is hGYS1 enzyme / glycogen synthesis in HeLa cells. Description: GYS1 cell based assay (glycogen synthesis, Glucose-glo). Also on record: species or system human. The note with it: Homo sapiens, HeLa, 24 h, 24 h incubation, 20 mM glucose, geometric mean of at least 2 runs. Put shortly:
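HeLa cells starved 24 h in medium containing only 1× Glutamax were plated onto compound in medium with 20 mM glucose (1% DMSO final) for 24 h, 37 °C, 5% CO2. Acid lysates were Tris-quenched, glucoamylase-digested (pH 5.3, 1 h, 37 °C) and read by Glucose-glo luminescence. IC50 came from Hill fits, as geometric mean of ≥2 runs.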

SMILES strings stand for the structures.

hGYS1 enzyme (recombinant hGYS1/GN1 protein), sequence (P13807 whole entry): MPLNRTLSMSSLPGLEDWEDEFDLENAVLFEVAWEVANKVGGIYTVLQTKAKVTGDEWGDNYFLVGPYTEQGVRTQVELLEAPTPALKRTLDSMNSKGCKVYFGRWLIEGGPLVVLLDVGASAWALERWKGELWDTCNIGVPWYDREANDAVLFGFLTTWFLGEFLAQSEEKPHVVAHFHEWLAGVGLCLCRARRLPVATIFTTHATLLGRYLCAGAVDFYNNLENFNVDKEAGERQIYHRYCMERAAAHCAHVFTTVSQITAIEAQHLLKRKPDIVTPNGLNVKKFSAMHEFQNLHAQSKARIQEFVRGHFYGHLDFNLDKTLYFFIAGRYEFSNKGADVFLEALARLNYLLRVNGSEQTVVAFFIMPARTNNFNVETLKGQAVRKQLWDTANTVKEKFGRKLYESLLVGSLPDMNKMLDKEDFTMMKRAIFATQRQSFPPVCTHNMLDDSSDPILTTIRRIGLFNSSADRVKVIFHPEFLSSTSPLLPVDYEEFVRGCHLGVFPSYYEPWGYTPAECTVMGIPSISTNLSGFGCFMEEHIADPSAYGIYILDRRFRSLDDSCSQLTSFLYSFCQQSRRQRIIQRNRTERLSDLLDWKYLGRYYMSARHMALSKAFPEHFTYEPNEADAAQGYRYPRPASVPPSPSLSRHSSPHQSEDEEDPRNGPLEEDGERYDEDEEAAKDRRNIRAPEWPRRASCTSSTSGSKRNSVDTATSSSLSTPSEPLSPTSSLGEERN
hGYS1 enzyme (recombinant hGYS1/GN1 protein), sequence (P46976 whole entry partner): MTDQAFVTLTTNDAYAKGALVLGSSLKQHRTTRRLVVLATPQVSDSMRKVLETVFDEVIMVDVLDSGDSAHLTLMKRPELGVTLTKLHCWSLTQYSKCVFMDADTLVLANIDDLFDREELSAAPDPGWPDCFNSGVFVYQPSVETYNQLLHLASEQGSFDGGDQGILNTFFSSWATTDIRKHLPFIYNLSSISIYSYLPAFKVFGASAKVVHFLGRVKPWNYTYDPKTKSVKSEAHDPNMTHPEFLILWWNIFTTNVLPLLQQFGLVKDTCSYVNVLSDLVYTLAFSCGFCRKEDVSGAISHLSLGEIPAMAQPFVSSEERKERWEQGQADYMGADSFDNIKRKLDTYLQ

Consider `Cn1cc(CC(=O)N2C[C@H](F)C[C@H]2C(=O)N[C@@H](c2ccccc2)c2ccc(C3CC3)c(F)n2)c(C(F)F)n1` [Compound 749, (2S,4R)-N-[(S)-(5-cyclopropyl-6-fluoropyridin-2-yl)(phenyl)methyl]-1-{2-[3-(difluoromethyl)-1-methyl-1H-pyrazol-4-yl]acetyl}-4-fluoropyrrolidine-2-carboxamide], for which the IC50 in experiment [1] was determined as 6 nM; in experiment [2], 250 nM.

Consider `Cc1cc(C(F)F)n(CC(=O)N2C[C@H](F)C[C@H]2C(=O)N[C@@H](c2ccccc2)c2ccc(C3CC3)c(F)n2)n1` [Compound 750, (2S,4R)-N-[(S)-(5-cyclopropyl-6-fluoropyridin-2-yl)(phenyl)methyl]-1-{2-[5-(difluoromethyl)-3-methyl-1H-pyrazol-1-yl]acetyl}-4-fluoropyrrolidine-2-carboxamide], for which the IC50 was 11 nM in experiment [1] and 260 nM in experiment [2].

Consider `Cn1ncc(CC(=O)N2C[C@H](F)C[C@H]2C(=O)N[C@@H](c2ccccc2)c2ccc(C3CC3)c(F)n2)c1C(F)F` [Compound 751, (2S,4R)-N-[(S)-(5-cyclopropyl-6-fluoropyridin-2-yl)(phenyl)methyl]-1-{2-[5-(difluoromethyl)-1-methyl-1H-pyrazol-4-yl]acetyl}-4-fluoropyrrolidine-2-carboxamide], for which the figures for the IC50 in experiment [1] and in experiment [2] were 13 nM and 470 nM, respectively.

For the compound `Cc1cc(C(F)F)nn1CC(=O)N1C[C@H](F)C[C@H]1C(=O)N[C@@H](c1ccccc1)c1ccc(C2CC2)c(F)n1` [Compound 752, (2S,4R)-N-[(S)-(5-cyclopropyl-6-fluoropyridin-2-yl)(phenyl)methyl]-1-{2-[3-(difluoromethyl)-5-methyl-1H-pyrazol-1-yl]acetyl}-4-fluoropyrrolidine-2-carboxamide], the IC50 was determined as 21 nM in experiment [1] and 640 nM in experiment [2].

With `CCn1ccnc(CC(=O)N2C[C@H](F)C[C@H]2C(=O)N[C@@H](c2ccccc2)c2ccc(C3CC3)c(F)n2)c1=O` [Compound 753, (2S,4R)-N-[(S)-(5-cyclopropyl-6-fluoropyridin-2-yl)(phenyl)methyl]-1-[2-(4-ethyl-3-oxo-3,4-dihydropyrazin-2-yl)acetyl]-4-fluoropyrrolidine-2-carboxamide], the IC50 in experiment [1] was found to be 21 nM; in experiment [2], 320 nM.

For `Cn1ncc(C(F)F)c1CC(=O)N1C[C@H](F)C[C@H]1C(=O)N[C@@H](c1ccccc1)c1ccc(C2CC2)c(F)n1` [Compound 754, (2S,4R)-N-[(S)-(5-cyclopropyl-6-fluoropyridin-2-yl)(phenyl)methyl]-1-{2-[4-(difluoromethyl)-1-methyl-1H-pyrazol-5-yl]acetyl}-4-fluoropyrrolidine-2-carboxamide], the IC50 in experiment [1] stood at 27 nM; in experiment [2], 420 nM.

Take `O=C(N[C@@H](c1ccccc1)c1ccc(C2CC2)c(F)n1)[C@@H]1C[C@@H](F)CN1C(=O)Cn1nnnc1C(F)(F)F` [Compound 755, (2S,4R)-N-[(S)-(5-cyclopropyl-6-fluoropyridin-2-yl)(phenyl)methyl]-4-fluoro-1-{2-[5-(trifluoromethyl)-1H-1,2,3,4-tetrazol-1-yl]acetyl}pyrrolidine-2-carboxamide]: the results for the half-inhibitory concentration (IC50) in experiment [1] and in experiment [2] were 102 nM and 1060 nM, respectively.

For the compound `O=C(N[C@@H](c1ccccc1)c1ccc(C2CC2)c(F)n1)[C@@H]1C[C@@H](F)CN1C(=O)Cc1[nH]nnc1C(F)F` [Compound 756, (2S,4R)-N-[(S)-(5-cyclopropyl-6-fluoropyridin-2-yl)(phenyl)methyl]-1-{2-[4-(difluoromethyl)-1H-1,2,3-triazol-5-yl]acetyl}-4-fluoropyrrolidine-2-carboxamide], the figures for the concentration for half-maximal inhibition (IC50) in experiment [1] and in experiment [2] were 23 nM and 1700 nM, respectively.

For the compound `Cn1cc(C(F)F)c(CC(=O)N2C[C@H](F)C[C@H]2C(=O)N[C@@H](c2ccccc2)c2ccc(C3CC3)c(F)n2)n1` [Compound 757, (2S,4R)-N-[(S)-(5-cyclopropyl-6-fluoropyridin-2-yl)(phenyl)methyl]-1-{2-[4-(difluoromethyl)-1-methyl-1H-pyrazol-3-yl]acetyl}-4-fluoropyrrolidine-2-carboxamide], the IC50 amounted to 29 nM in experiment [1] and 400 nM in experiment [2].

Consider `O=C(N[C@@H](c1ccccc1)c1ccc(C2CC2)c(F)n1)[C@@H]1C[C@@H](F)CN1C(=O)Cn1nncc1N1CC(F)(F)C1` [Compound 758, (2S,4R)-N-[(S)-(5-cyclopropyl-6-fluoropyridin-2-yl)(phenyl)methyl]-1-{2-[5-(3,3-difluoroazetidin-1-yl)-1H-1,2,3-triazol-1-yl]acetyl}-4-fluoropyrrolidine-2-carboxamide], for which the IC50 worked out at 32 nM in experiment [1] and 1160 nM in experiment [2].

With `O=C(N[C@@H](c1ccccc1)c1ccc(C2CC2)c(F)n1)[C@@H]1C[C@@H](F)CN1C(=O)Cn1cnnc1C(F)F` [Compound 759, (2S,4R)-N-[(S)-(5-cyclopropyl-6-fluoropyridin-2-yl)(phenyl)methyl]-1-{2-[3-(difluoromethyl)-4H-1,2,4-triazol-4-yl]acetyl}-4-fluoropyrrolidine-2-carboxamide], the 50% inhibitory concentration (IC50) was found to be 18 nM in experiment [1] and 590 nM in experiment [2].

As to `O=C(N[C@@H](c1ccccc1)c1ccc(C2CC2)c(F)n1)[C@@H]1C[C@@H](F)CN1C(=O)Cn1nccc1C(F)(F)F` [Compound 760, (2S,4R)-N-[(S)-(5-cyclopropyl-6-fluoropyridin-2-yl)(phenyl)methyl]-4-fluoro-1-{2-[5-(trifluoromethyl)-1H-pyrazol-1-yl]acetyl}pyrrolidine-2-carboxamide], the IC50 in experiment [1] was 17 nM; in experiment [2] it was 370 nM.

As to `CC(C)c1ccc([C@@H](NC(=O)[C@@H]2C[C@@H](F)CN2C(=O)Cc2[nH]nnc2N(C)C)c2ccccc2)cc1F` [Compound 775, (2S,4R)-1-{2-[4-(dimethylamino)-1H-1,2,3-triazol-5-yl]acetyl}-4-fluoro-N-[(S)-[3-fluoro-4-(propan-2-yl)phenyl](phenyl)methyl] pyrrolidine-2-carboxamide], the results for the IC50 in experiment [1] and in experiment [2] were 1080 nM and over 17500 nM, respectively.

Consider `CCn1cc(CC(=O)N2C[C@H](F)C[C@H]2C(=O)N[C@@H](c2ccccc2)c2ccc(C(C)C)c(F)n2)cc(C)c1=O` [Compound 796, (2S,4R)-1-[2-(1-ethyl-5-methyl-6-oxo-1,6-dihydropyridin-3-yl)acetyl]-4-fluoro-N-[(S)-[6-fluoro-5-(propan-2-yl)pyridin-2-yl](phenyl)methyl] pyrrolidine-2-carboxamide], for which the IC50 is 5 nM in experiment [1] and 110 nM in experiment [2].

Regarding `CCn1cc(CC(=O)N2C[C@H](F)C[C@H]2C(=O)N[C@@H](c2ccccc2)c2ccc(C(C)C)c(F)n2)ncc1=O` [Compound 797, (2S,4R)-1-[2-(4-ethyl-5-oxo-4,5-dihydropyrazin-2-yl)acetyl]-4-fluoro-N-[(S)-[6-fluoro-5-(propan-2-yl)pyridin-2-yl](phenyl)methyl] pyrrolidine-2-carboxamide], the IC50 in experiment [1] stood at 16 nM; in experiment [2] it was 290 nM.

On to `CCOc1ncc(CC(=O)N2C[C@H](F)C[C@H]2C(=O)N[C@@H](c2ccccc2)c2ccc(C(C)C)c(F)n2)cc1C` [Compound 798, (2S,4R)-1-[2-(6-ethoxy-5-methylpyridin-3-yl)acetyl]-4-fluoro-N-[(S)-[6-fluoro-5-(propan-2-yl)pyridin-2-yl](phenyl)methyl] pyrrolidine-2-carboxamide], for which the IC50 in experiment [1] turned out to be 12 nM; in experiment [2], 220 nM.

Regarding `CCn1cc(C)cc(CC(=O)N2C[C@H](F)C[C@H]2C(=O)N[C@@H](c2ccccc2)c2ccc(C(C)C)c(F)n2)c1=O` [Compound 799, (2S,4R)-1-[2-(1-ethyl-5-methyl-2-oxo-1,2-dihydropyridin-3-yl)acetyl]-4-fluoro-N-[(S)-[6-fluoro-5-(propan-2-yl)pyridin-2-yl](phenyl)methyl] pyrrolidine-2-carboxamide], the IC50 in experiment [1] was determined as 4 nM; in experiment [2] it was 100 nM.

For `CC(C)c1ccc([C@@H](NC(=O)[C@@H]2C[C@@H](F)CN2C(=O)Cc2c[nH]c(=O)cn2)c2ccccc2)nc1F` [Compound 802, (2S,4R)-4-fluoro-N-[(S)-[6-fluoro-5-(propan-2-yl)pyridin-2-yl](phenyl)methyl]-1-[2-(5-oxo-4,5-dihydropyrazin-2-yl)acetyl]pyrrolidine-2-carboxamide], the IC50 turned out to be 9 nM in experiment [1] and 370 nM in experiment [2].

Turning to `Cc1cc(C(F)F)n(CC(=O)N2C[C@H](F)C[C@H]2C(=O)N[C@@H](c2ccccc2)c2ccc(C(C)C)c(F)n2)n1` [Compound 803, (2S,4R)-1-{2-[5-(difluoromethyl)-3-methyl-1H-pyrazol-1-yl]acetyl}-4-fluoro-N-[(S)-[6-fluoro-5-(propan-2-yl)pyridin-2-yl](phenyl)methyl] pyrrolidine-2-carboxamide], the concentration for half-maximal inhibition (IC50) in experiment [1] is 4 nM; in experiment [2], 80 nM.

As for `Cc1cc(C(F)F)nn1CC(=O)N1C[C@H](F)C[C@H]1C(=O)N[C@@H](c1ccccc1)c1ccc(C(C)C)c(F)n1` [Compound 804, (2S,4R)-1-{2-[3-(difluoromethyl)-5-methyl-1H-pyrazol-1-yl]acetyl}-4-fluoro-N-[(S)-[6-fluoro-5-(propan-2-yl)pyridin-2-yl](phenyl)methyl] pyrrolidine-2-carboxamide], the IC50 in experiment [1] stood at 17 nM; in experiment [2], 140 nM.

With `CCN(CC)c1cnnn1CC(=O)N1C[C@H](F)C[C@H]1C(=O)N[C@@H](c1ccccc1)c1ccc(C(C)C)c(F)n1` [Compound 805, (2S,4R)-1-{2-[5-(diethylamino)-1H-1,2,3-triazol-1-yl]acetyl}-4-fluoro-N-[(S)-[6-fluoro-5-(propan-2-yl)pyridin-2-yl](phenyl)methyl] pyrrolidine-2-carboxamide], the IC50 stood at 12 nM in experiment [1] and 280 nM in experiment [2].

The values above are taken from patent US11814367B2, “Inhibitors of glycogen synthase 1 (GYS1) and methods of use thereof” (Maze Therapeutics, Inc., priority 2021, dated 2023).
